The target in this assay is T1, N-terminal 6His-tagged ROCK2 catalytic domain 11-552 (Homo sapiens, UniProt O75116).
T1 construct: N-terminal 6His-tagged ROCK2 catalytic domain 11-552; 6His (N); purchased Dundee University, UK; host or cells: baculovirus expression system
The assay is described as follows: ROCK2 binding activity: ROCK2 inhibition, ADP-Glo Kinase Assay. Type of assay: biochemical. The note with it: 1.25 nM ROCK2, 100 μM long S6 peptide, 20 μM ATP; 1 hour pre-incubation; read-out: ADP-Glo kinase activity assay ROCK2 Category. The method in brief: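 1.25 nM baculovirus-expressed ROCK2 pre-incubated 1 h with compound (1% DMSO), then 100 μM long S6 peptide and 20 μM ATP added for 1 h; 50 mM HEPES pH 7.5, 10 mM Mg acetate, 1 mM DTT. ADP-Glo luminescence; IC50 from four-parameter logistic fit.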
(ADP-Glo turns the ADP formed in a reaction into a luminescent signal.)

T1 sequence (O75116 11-552): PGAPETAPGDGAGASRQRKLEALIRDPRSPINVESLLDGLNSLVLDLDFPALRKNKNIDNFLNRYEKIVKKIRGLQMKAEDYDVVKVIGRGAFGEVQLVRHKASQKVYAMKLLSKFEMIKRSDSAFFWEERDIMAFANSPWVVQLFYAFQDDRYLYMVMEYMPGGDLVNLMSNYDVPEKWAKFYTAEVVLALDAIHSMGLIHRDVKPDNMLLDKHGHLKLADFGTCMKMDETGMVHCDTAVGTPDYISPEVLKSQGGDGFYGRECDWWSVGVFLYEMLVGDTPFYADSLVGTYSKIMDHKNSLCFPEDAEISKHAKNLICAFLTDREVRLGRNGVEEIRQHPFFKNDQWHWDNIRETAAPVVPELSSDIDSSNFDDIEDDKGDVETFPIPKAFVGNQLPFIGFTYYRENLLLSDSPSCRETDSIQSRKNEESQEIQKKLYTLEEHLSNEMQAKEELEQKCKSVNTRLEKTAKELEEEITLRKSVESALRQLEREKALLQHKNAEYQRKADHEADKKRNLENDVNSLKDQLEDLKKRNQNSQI

As to `COc1cc(OCC(=O)NC(C)C)ccc1-c1nc(Nc2ccc3[nH]ncc3c2)n(C)n1` [Example 404], the IC50 is below 300 nM.

Take `CC(C)NC(=O)COc1ccc(-c2nc(Nc3ccc4[nH]ncc4c3)n(C)n2)c(F)c1` [Example 405]: the IC50 is below 300 nM.

Consider `CCNC(=O)c1ccc(-c2nc(Nc3ccc4[nH]ncc4c3)n(C)n2)c(F)c1` [Example 406], for which the IC50 is below 300 nM.

As to `CC(C)NC(=O)COc1ccc(-c2nc(Nc3ccc4[nH]ncc4c3)n(C)n2)c(Cl)c1` [Example 407], the IC50 was below 300 nM.

In the case of `CCNC(=O)c1ccc(-c2nc(Nc3ccc4[nH]ncc4c3)n(C)n2)c(C(F)(F)F)c1` [Example 408], the IC50 fell in the range of 300 to 3000 nM.

`CCNC(=O)c1cc(F)c(-c2nc(Nc3ccc4[nH]ncc4c3)n(C)n2)cc1F` [Example 409]: the IC50 is below 300 nM.

Consider `CCNC(=O)c1c(F)cc(-c2nc(Nc3ccc4[nH]ncc4c3)n(C)n2)cc1F` [Example 410], for which the IC50 lay in the range of 300 to 3000 nM.

Take `CC(C)NC(=O)COc1ccc(-c2nc(Nc3ccc4[nH]ncc4c3)n(C)n2)c(F)c1F` [Example 411]: the IC50 is below 300 nM.

On to `CCNC(=O)c1ccc(-c2nc(Nc3ccc4[nH]ncc4c3)n(C)n2)cc1C#N` [Example 412], for which the IC50 is below 300 nM.

Turning to `CCNC(=O)c1cc(F)c(-c2nc(Nc3ccc4[nH]ncc4c3)n(C)n2)c(F)c1` [Example 413], the IC50 was below 300 nM.

As to `CN1CCc2cc(-c3nc(Nc4ccc5[nH]ncc5c4)n(C)n3)ccc2C1` [Example 414], the IC50 is 3000 to 10000 nM.

On to `CC(C)NC(=O)COc1c(F)cc(-c2nc(Nc3ccc4[nH]ncc4c3)n(C)n2)cc1F` [Example 415], for which the IC50 is below 300 nM.

As to `CC(C)NC(=O)COc1cc(F)c(-c2nc(Nc3ccc4[nH]ncc4c3)n(C)n2)cc1F` [Example 416], the IC50 was below 300 nM.

As for `Cc1cc(-c2nc(Nc3ccc4[nH]ncc4c3C)n(C)n2)ccc1C(=O)NCC(F)(F)F` [Example 417], the IC50 was below 300 nM.

As for `Cc1c(Nc2nc(-c3ccc(C(=O)NCC(F)(F)F)nc3)nn2C)ccc2[nH]ncc12` [Example 418], the IC50 lay within 300 to 3000 nM.

As to `Cc1c(Nc2nc(-c3ccc(C(=O)NCC(F)(F)F)c(F)c3F)nn2C)ccc2[nH]ncc12` [Example 419], the IC50 was below 300 nM.

Turning to `COc1cc(-c2nc(Nc3ccc4[nH]ncc4c3C)n(C)n2)cnc1C(=O)NC1CC1` [Example 420], the IC50 lay within 300 to 3000 nM.

As to `Cc1c(Nc2nc(-c3ccc(C(=O)NCC(F)(F)F)cc3)nn2C)ccc2[nH]ncc12` [Example 421], the IC50 is below 300 nM.

`Cc1c(Nc2nc(-c3ccc(C(N)C(F)(F)F)cc3)nn2C)ccc2[nH]ncc12` (centres unmarked) [Example 422]: the IC50 was above 10000 nM.

On to `CCc1c(Nc2nc(-c3ccc(C(=O)NCC(F)(F)F)cc3)nn2C)ccc2[nH]ncc12` [Example 423], for which the IC50 was below 300 nM.

For `CCc1c(Nc2nc(-c3ccc(C(=O)NCC(F)(F)F)c(C)c3)nn2C)ccc2[nH]ncc12` [Example 424], the IC50 is below 300 nM.

On to `CC(C)c1c(Nc2nc(-c3ccc(C(=O)NCC(F)(F)F)cc3)nn2C)ccc2[nH]ncc12` [Example 425], for which the IC50 was in the range of 300 to 3000 nM.

Take `C=Cc1c(Nc2nc(-c3ccc(C(=O)NCC)cc3)nn2C)ccc2[nH]ncc12` [Example 426]: the IC50 is below 300 nM.

Take `Cc1n[nH]c2ccc(Nc3nc(-c4ccc(C(=O)NCC(F)(F)F)cc4)nn3C)cc12` [Example 427]: the IC50 was below 300 nM.

With `Cn1nc(-c2ccc(C(=O)NCC(F)(F)F)cc2)nc1Nc1ccc2[nH]nc(F)c2c1` [Example 428], the IC50 is below 300 nM.

Consider `COc1cc(-c2nc(Nc3ccc4[nH]nc(Cl)c4c3)n(C)n2)ccc1C(=O)NCC(F)(F)F` [Example 429], for which the IC50 was below 300 nM.

Consider `Cn1nc(-c2ccc(C(=O)NCC(F)(F)F)cc2)nc1Nc1ccc2[nH]nc(Cl)c2c1` [Example 430], for which the IC50 was below 300 nM.

For the compound `COc1cc(-c2nc(Nc3cc4cn[nH]c4cc3F)n(C)n2)ccc1C(=O)NC(C)(C)C` [Example 432], the IC50 lay within 3000 to 10000 nM.

For `COc1cc(-c2nc(Nc3cnc4[nH]ncc4c3)n(C)n2)ccc1OCC(=O)NC(C)C` [Example 433], the IC50 lay in the range of 300 to 3000 nM.

Take `COc1cc(-c2nc(Nc3ccc4[nH]ncc4c3Cl)n(CCN3CCOCC3)n2)ccc1OCC(=O)NC(C)C` [Example 434]: the IC50 is below 300 nM.

With `Cc1cc(-c2nc(Nc3ccc4[nH]ncc4c3Cl)n(CC(C)C)n2)ccc1C(=O)NCC(F)(F)F` [Example 435], the IC50 is below 300 nM.

`COc1cc(-c2nc(Nc3ccc4[nH]ncc4c3Cl)n(CC(C)C)n2)ccc1OCC(=O)NC(C)C` [Example 436]: the IC50 was below 300 nM.

Regarding `COc1cc(-c2nc(Nc3ccc4[nH]ncc4c3Cl)n(CC(C)C)n2)ccc1C(=O)NCC(F)(F)F` [Example 437], the IC50 is below 300 nM.

Turning to `COCCn1nc(-c2ccc(C(=O)NCC(F)(F)F)cc2)nc1Nc1ccc2[nH]ncc2c1C1CC1` [Example 438], the IC50 is below 300 nM.

As to `COCCn1nc(-c2ccc(C(=O)NCC(F)(F)F)c(OC)c2)nc1Nc1ccc2[nH]ncc2c1C1CC1` [Example 439], the IC50 was below 300 nM.

Turning to `COCCn1nc(-c2ccc(C(=O)NC3CC3)cc2)nc1Nc1ccc2[nH]ncc2c1C1CC1` [Example 440], the IC50 is below 300 nM.

Regarding `CCn1nc(-c2ccc(C(=O)NCC(F)(F)F)c(OC)c2)nc1Nc1ccc2[nH]ncc2c1C1CC1` [Example 441], the IC50 was below 300 nM.

On to `O=C(NCC(F)(F)F)c1ccc(-c2nc(Nc3ccc4[nH]ncc4c3C3CC3)n(C3CCNCC3)n2)cc1` [Example 442], for which the IC50 is below 300 nM.

For the compound `CNCCn1nc(-c2ccc(C(=O)NCC(F)(F)F)cc2)nc1Nc1ccc2[nH]ncc2c1C1CC1` [Example 443], the IC50 was below 300 nM.

On to `CC(O)Cn1nc(-c2ccc(C(=O)NCC(F)(F)F)cc2)nc1Nc1ccc2[nH]ncc2c1C1CC1` (centres unmarked) [Example 444], for which the IC50 was below 300 nM.

As for `COc1cc(-c2nc(Nc3ccc4[nH]ncc4c3)n(CCN3CCCCC3)n2)ccc1OCC(=O)NC(C)C` [Example 445], the IC50 is below 300 nM.

Turning to `COc1cc(-c2nc(Nc3ccc4[nH]ncc4c3)n(CCN3CCOCC3)n2)ccc1OCC(=O)NC(C)C` [Example 446], the IC50 is below 300 nM.

As to `COCCn1nc(-c2ccc(OCC(=O)NC(C)C)c(OC)c2)nc1Nc1ccc2[nH]ncc2c1` [Example 447], the IC50 was below 300 nM.

For `COCCn1nc(-c2ccc(C(=O)NCC(F)(F)F)c(OC)c2)nc1Nc1ccc2[nH]ncc2c1C` [Example 448], the IC50 was below 300 nM.

As for `COc1cc(-c2nc(Nc3ccc4[nH]ncc4c3C)n(C(C)C)n2)ccc1C(=O)NCC(F)(F)F` [Example 449], the IC50 is below 300 nM.

For `COc1cc(-c2nc(Nc3ccc4[nH]ncc4c3C)n(C(C)C)n2)ccc1OCC(=O)NC(C)C` [Example 450], the IC50 is below 300 nM.

Take `Cc1cc(-c2nc(Nc3ccc4[nH]ncc4c3C)n(CC(C)C)n2)ccc1C(=O)NCC(F)(F)F` [Example 451]: the IC50 was below 300 nM.

`COc1cc(-c2nc(Nc3ccc4[nH]ncc4c3C)n(CC(C)C)n2)ccc1OCC(=O)NC(C)C` [Example 452]: the IC50 is below 300 nM.

`COCCn1nc(-c2ccc(C(=O)NCC(F)(F)F)cc2)nc1Nc1ccc2[nH]ncc2c1C` [Example 453]: the IC50 was below 300 nM.

With `COCCn1nc(-c2ccc(C(=O)NCC(F)(F)F)c(C)c2)nc1Nc1ccc2[nH]ncc2c1C` [Example 454], the IC50 was below 300 nM.

For the origin of these results see patent US11497751B2, “Modulators of Rho-associated protein kinase” (Redx Pharma PLC, priority 2018, dated 2022).
